Read-outs that look alike come from different tables or passages of the source.
Assays:
Format in all cases: biochemical
[1] = target: FGFR2 (N549H) (Homo sapiens, UniProt P21802, N549H); experiment: Activity against various protein tyrosine kinases: FGFR2 (N549H); details: for inhibition at 0.01 µM: 10 nM
Method: (§1) Using techniques know those of ordinary skill in the art, compounds were tested for activity against various protein tyrosine kinases.

[2] = target: MET (Homo sapiens, UniProt P08581); experiment: Activity against various protein tyrosine kinases: MET; details: for inhibition at 0.01 µM: 10 nM
Method: as §1

[3] = target: AKT3 (Homo sapiens, UniProt Q9Y243); experiment: Activity against various protein tyrosine kinases: AKT3; details: for inhibition at 0.01 µM: 10 nM
Method: as §1

[4] = target: FGFR2 (Homo sapiens, UniProt P21802); experiment: Activity against various protein tyrosine kinases: FGFR2; details: for inhibition at 0.01 µM: 10 nM
Method: as §1

[5] = target: cKIT (Homo sapiens, UniProt P10721); experiment: Activity against various protein tyrosine kinases: CKIT; set-up: purchased MILLIPORE 14-559; details: for inhibition at 0.01 µM: 10 nM
Method: as §1

[6] = target: Erk2 (Homo sapiens, UniProt P28482); experiment: Activity against various protein tyrosine kinases: Erk2; details: for inhibition at 0.01 µM: 10 nM
Method: as §1

[7] = target: PDGFR_alpha (Homo sapiens, UniProt P16234); experiment: Activity against various protein tyrosine kinases: PDGFR_alpha; details: for inhibition at 0.01 µM: 10 nM
Method: as §1

[8] = target: T1, CHK1 (Homo sapiens, UniProt O14757); experiment: Activity against various protein tyrosine kinases: CHK1; details: for inhibition at 0.01 µM: 10 nM
T1 sequence (O14757 1-476): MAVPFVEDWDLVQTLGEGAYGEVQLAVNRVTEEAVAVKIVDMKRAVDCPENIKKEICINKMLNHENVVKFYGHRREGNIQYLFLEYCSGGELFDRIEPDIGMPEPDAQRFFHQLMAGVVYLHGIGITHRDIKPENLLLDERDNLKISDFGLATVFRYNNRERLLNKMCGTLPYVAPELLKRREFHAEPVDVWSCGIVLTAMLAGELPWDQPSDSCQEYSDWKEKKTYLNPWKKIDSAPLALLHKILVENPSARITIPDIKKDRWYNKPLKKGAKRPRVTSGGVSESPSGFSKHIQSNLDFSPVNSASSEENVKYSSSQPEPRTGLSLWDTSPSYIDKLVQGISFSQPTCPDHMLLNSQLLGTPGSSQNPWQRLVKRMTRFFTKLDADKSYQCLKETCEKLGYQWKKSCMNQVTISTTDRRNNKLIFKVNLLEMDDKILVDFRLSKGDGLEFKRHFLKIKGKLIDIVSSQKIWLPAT
Method: as §1

[9] = target: T2, PRAK (Homo sapiens, UniProt Q8IW41); experiment: Activity against various protein tyrosine kinases: PRAK; details: for inhibition at 0.01 µM: 10 nM
T2 sequence (Q8IW41 1-473): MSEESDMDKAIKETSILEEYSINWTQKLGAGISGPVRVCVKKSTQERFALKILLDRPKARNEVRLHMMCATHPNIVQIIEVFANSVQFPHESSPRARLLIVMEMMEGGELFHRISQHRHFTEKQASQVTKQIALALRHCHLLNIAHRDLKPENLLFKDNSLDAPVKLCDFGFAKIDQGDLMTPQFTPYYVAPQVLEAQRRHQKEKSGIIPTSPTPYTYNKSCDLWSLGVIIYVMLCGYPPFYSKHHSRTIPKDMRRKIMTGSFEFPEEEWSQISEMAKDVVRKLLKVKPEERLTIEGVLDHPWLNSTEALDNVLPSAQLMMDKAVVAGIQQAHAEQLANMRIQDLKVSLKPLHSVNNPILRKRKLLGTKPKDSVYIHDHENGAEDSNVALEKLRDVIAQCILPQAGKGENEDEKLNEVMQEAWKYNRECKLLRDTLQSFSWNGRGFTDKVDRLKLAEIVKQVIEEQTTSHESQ
Method: as §1

[10] = target: CK1d (Homo sapiens, UniProt P48730); experiment: Activity against various protein tyrosine kinases: CK1d; details: for inhibition at 0.01 µM: 10 nM
Method: as §1

[11] = target: p38a (Homo sapiens, UniProt Q16539); experiment: Activity against various protein tyrosine kinases: p38a; details: for inhibition at 0.01 µM: 10 nM; for inhibition at 1 µM: read-out: % Inhibition at 1 μM
Method: as §1

[12] = target: T3, TSSK1 (Homo sapiens, UniProt Q9BXA7); experiment: Activity against various protein tyrosine kinases: TSSK1; details: for inhibition at 0.01 µM: 10 nM
T3 sequence (Q9BXA7 1-367): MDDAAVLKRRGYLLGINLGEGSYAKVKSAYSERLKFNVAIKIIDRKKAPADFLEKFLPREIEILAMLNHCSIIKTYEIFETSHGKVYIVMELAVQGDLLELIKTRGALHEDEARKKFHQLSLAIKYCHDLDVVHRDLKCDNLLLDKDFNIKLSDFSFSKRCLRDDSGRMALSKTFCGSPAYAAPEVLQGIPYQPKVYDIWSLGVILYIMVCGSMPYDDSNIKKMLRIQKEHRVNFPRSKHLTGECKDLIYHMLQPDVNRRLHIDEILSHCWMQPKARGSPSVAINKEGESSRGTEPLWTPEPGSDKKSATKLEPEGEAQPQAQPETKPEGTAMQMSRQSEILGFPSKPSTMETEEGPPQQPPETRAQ
Method: as §1

[13] = target: CaMKII (beta) (Homo sapiens, UniProt Q13554); experiment: Activity against various protein tyrosine kinases: CaMKII (beta); details: for inhibition at 0.01 µM: 10 nM
Method: as §1

[14] = target: CaMKII (gamma) (Homo sapiens, UniProt Q13555); experiment: Activity against various protein tyrosine kinases: CaMKII (gamma); details: for inhibition at 0.01 µM: 10 nM
Method: as §1

[15] = target: AurB (Homo sapiens, UniProt Q96GD4); experiment: Activity against various protein tyrosine kinases: AurB; details: for inhibition at 0.01 µM: 10 nM; for inhibition at 1 µM: read-out: % Inhibition at 1 μM
Method: as §1

[16] = target: CHK2 (Homo sapiens, UniProt O96017); experiment: Activity against various protein tyrosine kinases: CHK2; details: for inhibition at 0.01 µM: 10 nM
Method: as §1

[17] = target: FGFR4 (Homo sapiens, UniProt P22455); experiment: Activity against various protein tyrosine kinases: FGFR4; details: for inhibition at 0.01 µM: 10 nM
Method: as §1

Chain of CK1d (P48730 whole entry): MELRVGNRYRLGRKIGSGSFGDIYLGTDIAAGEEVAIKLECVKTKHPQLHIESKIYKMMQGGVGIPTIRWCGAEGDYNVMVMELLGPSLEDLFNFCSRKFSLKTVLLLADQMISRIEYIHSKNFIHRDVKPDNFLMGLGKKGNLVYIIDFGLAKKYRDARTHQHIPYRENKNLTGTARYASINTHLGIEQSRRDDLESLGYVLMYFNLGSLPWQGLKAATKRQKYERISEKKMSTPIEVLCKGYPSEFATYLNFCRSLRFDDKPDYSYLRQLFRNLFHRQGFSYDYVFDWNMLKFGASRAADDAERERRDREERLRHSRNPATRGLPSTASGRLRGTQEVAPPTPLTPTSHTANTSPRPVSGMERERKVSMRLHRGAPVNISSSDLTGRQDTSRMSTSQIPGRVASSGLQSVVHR
Chain of AKT3 (Q9Y243 whole entry, species assumed): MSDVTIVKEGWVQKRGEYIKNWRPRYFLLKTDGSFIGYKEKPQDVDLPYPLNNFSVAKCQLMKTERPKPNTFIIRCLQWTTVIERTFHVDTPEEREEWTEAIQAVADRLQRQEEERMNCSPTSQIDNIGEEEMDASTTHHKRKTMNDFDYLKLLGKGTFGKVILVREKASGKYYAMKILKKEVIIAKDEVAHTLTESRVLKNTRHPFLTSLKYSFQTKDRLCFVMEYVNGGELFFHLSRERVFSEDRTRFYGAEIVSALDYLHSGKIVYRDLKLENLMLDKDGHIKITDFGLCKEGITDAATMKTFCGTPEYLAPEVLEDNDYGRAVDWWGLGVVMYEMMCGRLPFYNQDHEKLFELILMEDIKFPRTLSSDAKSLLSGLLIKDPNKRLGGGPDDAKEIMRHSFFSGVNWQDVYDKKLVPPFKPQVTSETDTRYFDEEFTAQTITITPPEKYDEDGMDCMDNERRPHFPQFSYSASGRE
Chain of CaMKII (beta) (Q13554 whole entry): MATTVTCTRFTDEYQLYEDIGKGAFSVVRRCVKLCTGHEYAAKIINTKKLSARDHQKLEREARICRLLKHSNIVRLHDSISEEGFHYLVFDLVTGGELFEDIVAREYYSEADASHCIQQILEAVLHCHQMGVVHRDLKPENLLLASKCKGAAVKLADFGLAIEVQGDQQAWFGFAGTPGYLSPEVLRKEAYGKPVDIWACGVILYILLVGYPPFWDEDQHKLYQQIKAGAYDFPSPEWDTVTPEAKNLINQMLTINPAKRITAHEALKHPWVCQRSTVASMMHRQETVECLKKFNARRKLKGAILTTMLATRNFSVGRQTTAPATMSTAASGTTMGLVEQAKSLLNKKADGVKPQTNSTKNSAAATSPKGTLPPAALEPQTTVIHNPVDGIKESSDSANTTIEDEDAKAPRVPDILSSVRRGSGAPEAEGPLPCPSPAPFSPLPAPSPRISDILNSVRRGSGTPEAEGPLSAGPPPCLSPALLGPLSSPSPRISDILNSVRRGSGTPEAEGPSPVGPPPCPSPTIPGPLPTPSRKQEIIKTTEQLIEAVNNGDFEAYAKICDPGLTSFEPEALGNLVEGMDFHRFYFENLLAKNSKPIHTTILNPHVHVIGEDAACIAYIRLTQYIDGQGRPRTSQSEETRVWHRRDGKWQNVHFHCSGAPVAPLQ
Chain of PDGFR_alpha (P16234 24-1089, species assumed): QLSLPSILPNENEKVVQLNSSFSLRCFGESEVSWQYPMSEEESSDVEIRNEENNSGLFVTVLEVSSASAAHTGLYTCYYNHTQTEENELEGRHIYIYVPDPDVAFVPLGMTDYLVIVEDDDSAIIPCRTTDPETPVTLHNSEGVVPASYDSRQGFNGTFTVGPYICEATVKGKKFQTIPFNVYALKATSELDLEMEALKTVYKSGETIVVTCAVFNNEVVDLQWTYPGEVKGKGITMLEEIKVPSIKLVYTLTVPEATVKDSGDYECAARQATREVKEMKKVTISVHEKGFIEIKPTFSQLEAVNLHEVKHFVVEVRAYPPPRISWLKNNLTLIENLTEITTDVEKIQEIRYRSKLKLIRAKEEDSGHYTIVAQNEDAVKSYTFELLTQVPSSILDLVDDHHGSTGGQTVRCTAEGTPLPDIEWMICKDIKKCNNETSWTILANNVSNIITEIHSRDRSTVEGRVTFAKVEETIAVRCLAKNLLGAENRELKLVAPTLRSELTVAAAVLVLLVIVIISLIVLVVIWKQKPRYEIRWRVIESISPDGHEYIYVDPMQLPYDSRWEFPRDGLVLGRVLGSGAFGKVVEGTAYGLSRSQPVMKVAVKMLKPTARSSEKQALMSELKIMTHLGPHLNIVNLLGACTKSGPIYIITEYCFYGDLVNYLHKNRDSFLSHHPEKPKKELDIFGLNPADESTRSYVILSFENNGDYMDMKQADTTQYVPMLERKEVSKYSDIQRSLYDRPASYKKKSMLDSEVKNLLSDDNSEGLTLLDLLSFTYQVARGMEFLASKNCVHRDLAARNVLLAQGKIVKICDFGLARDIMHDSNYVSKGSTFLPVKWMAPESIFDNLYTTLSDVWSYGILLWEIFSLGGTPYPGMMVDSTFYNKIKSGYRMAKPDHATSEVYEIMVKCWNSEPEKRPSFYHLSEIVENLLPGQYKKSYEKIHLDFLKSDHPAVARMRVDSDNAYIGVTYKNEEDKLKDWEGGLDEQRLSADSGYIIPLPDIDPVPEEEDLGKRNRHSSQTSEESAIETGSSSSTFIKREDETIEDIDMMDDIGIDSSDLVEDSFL
Chain of Erk2 (P28482 whole entry, species assumed): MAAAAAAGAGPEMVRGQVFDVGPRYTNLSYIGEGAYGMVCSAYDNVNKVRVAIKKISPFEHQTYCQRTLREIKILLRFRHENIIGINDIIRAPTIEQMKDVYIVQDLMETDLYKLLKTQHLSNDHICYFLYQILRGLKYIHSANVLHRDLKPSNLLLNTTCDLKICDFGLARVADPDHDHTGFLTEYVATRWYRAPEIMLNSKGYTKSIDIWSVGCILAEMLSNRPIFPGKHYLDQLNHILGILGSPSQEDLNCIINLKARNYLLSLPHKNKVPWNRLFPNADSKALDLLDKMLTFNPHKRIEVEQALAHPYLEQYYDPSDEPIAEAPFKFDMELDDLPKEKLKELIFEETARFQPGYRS
Chain of p38a (Q16539 whole entry): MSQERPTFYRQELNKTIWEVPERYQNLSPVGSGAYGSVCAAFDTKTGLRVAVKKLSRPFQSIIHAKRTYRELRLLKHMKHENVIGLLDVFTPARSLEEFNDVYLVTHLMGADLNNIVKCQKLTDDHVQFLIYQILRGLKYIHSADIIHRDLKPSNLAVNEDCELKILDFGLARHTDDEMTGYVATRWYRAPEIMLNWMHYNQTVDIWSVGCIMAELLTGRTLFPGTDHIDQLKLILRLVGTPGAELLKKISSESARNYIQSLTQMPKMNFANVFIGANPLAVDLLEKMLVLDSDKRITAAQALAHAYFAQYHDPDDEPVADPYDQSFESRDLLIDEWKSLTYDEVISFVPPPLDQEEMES
Chain of MET (P08581 25-1390): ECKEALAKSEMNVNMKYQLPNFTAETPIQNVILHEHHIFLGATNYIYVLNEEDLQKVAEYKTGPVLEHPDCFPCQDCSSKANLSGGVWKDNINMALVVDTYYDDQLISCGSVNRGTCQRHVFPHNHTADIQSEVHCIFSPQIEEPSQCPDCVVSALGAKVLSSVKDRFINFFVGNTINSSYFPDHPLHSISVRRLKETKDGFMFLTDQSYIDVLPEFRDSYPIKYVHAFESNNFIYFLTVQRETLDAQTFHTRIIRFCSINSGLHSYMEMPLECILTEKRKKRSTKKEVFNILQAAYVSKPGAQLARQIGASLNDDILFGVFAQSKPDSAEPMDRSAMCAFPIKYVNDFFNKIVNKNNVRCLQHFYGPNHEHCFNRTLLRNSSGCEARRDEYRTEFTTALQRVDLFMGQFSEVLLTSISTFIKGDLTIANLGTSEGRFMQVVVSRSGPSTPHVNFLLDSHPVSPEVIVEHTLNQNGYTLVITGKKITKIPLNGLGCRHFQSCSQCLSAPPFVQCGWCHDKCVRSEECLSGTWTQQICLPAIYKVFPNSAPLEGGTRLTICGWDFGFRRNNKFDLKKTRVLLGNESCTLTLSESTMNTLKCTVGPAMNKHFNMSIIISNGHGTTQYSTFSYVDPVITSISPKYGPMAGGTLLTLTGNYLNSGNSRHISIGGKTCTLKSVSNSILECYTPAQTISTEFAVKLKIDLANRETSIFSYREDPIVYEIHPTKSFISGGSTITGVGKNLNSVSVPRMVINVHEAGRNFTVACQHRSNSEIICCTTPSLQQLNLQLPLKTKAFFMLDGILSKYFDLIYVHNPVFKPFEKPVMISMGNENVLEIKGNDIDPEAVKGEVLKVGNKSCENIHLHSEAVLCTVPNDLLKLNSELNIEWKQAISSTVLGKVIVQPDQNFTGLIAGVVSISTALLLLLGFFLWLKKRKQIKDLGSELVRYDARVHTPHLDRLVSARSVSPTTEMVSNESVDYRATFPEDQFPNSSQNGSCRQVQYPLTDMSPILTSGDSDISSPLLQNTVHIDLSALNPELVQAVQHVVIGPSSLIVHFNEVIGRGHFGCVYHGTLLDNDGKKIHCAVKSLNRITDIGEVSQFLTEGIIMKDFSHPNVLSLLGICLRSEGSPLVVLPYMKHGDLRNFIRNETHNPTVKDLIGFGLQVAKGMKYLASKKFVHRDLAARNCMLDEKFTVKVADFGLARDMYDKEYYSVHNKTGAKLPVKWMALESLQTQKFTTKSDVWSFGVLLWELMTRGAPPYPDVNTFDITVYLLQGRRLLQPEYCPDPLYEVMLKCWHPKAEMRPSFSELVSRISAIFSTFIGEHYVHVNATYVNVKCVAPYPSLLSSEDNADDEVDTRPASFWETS

| SMILES | inhibition at 0.01 µM [1] [%] | inhibition at 1 µM [1] [%] | inhibition at 0.01 µM [2] [%] | inhibition at 1 µM [2] [%] | inhibition at 0.01 µM [3] [%] | inhibition at 1 µM [3] [%] | inhibition at 0.01 µM [4] [%] | inhibition at 1 µM [4] [%] | inhibition at 0.01 µM [5] [%] | inhibition at 0.01 µM [6] [%] | inhibition at 0.01 µM [7] [%] | inhibition at 0.01 µM [8] [%] | inhibition at 0.01 µM [9] [%] | inhibition at 0.01 µM [10] [%] | inhibition at 0.01 µM [12] [%] | inhibition at 1 µM [12] [%] | inhibition at 1 µM [13] [%] | inhibition at 0.01 µM [14] [%] | inhibition at 0.01 µM [16] [%] | inhibition at 0.01 µM [17] [%] | also measured |
| --- | --- | --- | --- | --- | --- | --- | --- | --- | --- | --- | --- | --- | --- | --- | --- | --- | --- | --- | --- | --- | --- |
| COCCOCCOCCNC(=O)OCCN1CCN(c2cc(Nc3ncc(C(=O)Nc4c(C)cccc4Cl)s3)nc(C)n2)CC1 [mPEG3-NHCOO-Dasatinib] | 7 | 75 | 3 | 0 | 0 | -1 | -2 | 38 | 34 | 6 | 58 | -2 | 6 | 1 | -1 | 0 | 2 | 2 | 1 | 3 | inhibition at 1 µM [5]: 100%; inhibition at 1 µM [6]: 11%; inhibition at 1 µM [7]: 99%; inhibition at 1 µM [8]: 0%; inhibition at 1 µM [9]: 4%; inhibition at 1 µM [10]: 3%; inhibition at 0.01 µM ([11]; p38a): 6%; inhibition at 1 µM ([11]; p38a, 1 μM): 81%; inhibition at 0.01 µM [13]: 1%; inhibition at 1 µM [14]: 2%; inhibition at 0.01 µM ([15]; AurB): -1%; inhibition at 1 µM ([15]; AurB, 1 μM): 4%; inhibition at 1 µM [16]: 11%; inhibition at 1 µM [17]: 6% |
| Cc1nc(Nc2ncc(C(=O)Nc3c(C)cccc3Cl)s2)cc(N2CCN(CCO)CC2)n1 [Dasatinib, reference compound] | 6 | 71 | -2 |  | -3 | -4 | 3 | 36 | 30 | -2 | 10 | 3 | -2 | 1 | -5 | -6 | 3 | 5 | 3 | -2 | inhibition at 1 µM [11]: 75%; inhibition at 1 µM [15]: 6% |
| COCCOCCOCCOCCOCCOCCOCCNC(=O)OCCN1CCN(c2cc(Nc3ncc(C(=O)Nc4c(C)cccc4Cl)s3)nc(C)n2)CC1 [mPEG7-NHCOO-Dasatinib] | 5 | 63 | 1 | 1 | -3 | -2 | 5 | 35 | 34 | 3 | 46 | 10 | 8 | 0 | -3 | -5 | 2 | 6 | 2 | 0 | inhibition at 1 µM [5]: 100%; inhibition at 1 µM [6]: 2%; inhibition at 1 µM [7]: 98%; inhibition at 1 µM [8]: 8%; inhibition at 1 µM [9]: 0%; inhibition at 1 µM [10]: 9%; inhibition at 0.01 µM ([11]; p38a): 5%; inhibition at 1 µM ([11]; p38a, 1 μM): 74%; inhibition at 0.01 µM [13]: 1%; inhibition at 1 µM [14]: 3%; inhibition at 0.01 µM ([15]; AurB): 0%; inhibition at 1 µM ([15]; AurB, 1 μM): 4%; inhibition at 1 µM [16]: 1%; inhibition at 1 µM [17]: 2% |
